{"source": "patent US11033604B2", "about": "“Reagents and methods for treating bacterial infection” (priority 2018, dated 2021)", "key": {"[1]": {"system": "synthetic PSMα1", "assay": "PSMα1 fibrillization assay with added inhibitors (ThT)", "type": "biochemical, Staphylococcus aureus", "protocol": "FIG. 5. Aggregation of synthetic PSMα1 is inhibited by designed α-sheet peptides. (A) Synthetic PSMα1 peptide (30 μM, <1% DMSO, pH 5.5) was allowed to aggregate alone and in the presence of AP90 (1:4 molar ratio), RC (1:4 molar ratio), or AP407 (1:3 molar ratio). Two different solvent conditions were used (water+<1% DMSO; LB medium+<1% DMSO) and aggregation was monitored by ThT fluorescence. Inhibition values for each peptide are reported as a percentage of the peptide-free control samples (0% inhibition). (B) ThT fluorescence curves monitored the aggregation kinetics of PSMα1 under two different solvent conditions (water+<1% DMSO, black circles; LB medium+<1% DMSO, white circles). Fluorescence values in (B) are averages of 3-6 samples, with error bars to represent the standard deviation of the mean.\nDesigned α-sheet peptides inhibit amyloid formation through selective binding After establishing the structural transitions required to form amyloid in PSMα1, we examined the effect of the designed α-sheet peptides on the aggregation of PSMα1 in vitro. The designed peptide inhibitors were co-incubated with freshly prepared samples of synthetic PSMα1 (30 μM) and aggregation was monitored by ThT, as described above. To ensure sample homogeneity and removal of any amyloid “seeds” prior to aggregation, the synthetic PSMα1 peptide was treated with DMSO and then diluted into filtered water. […]"}, "[2]": {"system": "S. aureus MN8 biofilms", "assay": "ThT fluorescence assay of amyloid formation in S. aureus MN8 biofilm cultures", "type": "cell-based, Staphylococcus aureus", "conditions": "MN8 and SH1000 WT strains, particularly MN8; 24 h, 37° C.", "protocol": "We developed a novel protocol to identify amyloid fibril formation during biofilm development in two S. aureus strains—SH1000 WT, a rsbU^+ laboratory strain^27, and MN8, a clinical strain isolated from the human urogenital tract (Table 1). After 24 hours of batch growth in microtiter plates, biofilms were washed and incubated with Thioflavin T (ThT), and the resulting fluorescence signals served as a proxy for the extent of PSM fibril formation in the EM (FIG. 1A). Next, we utilized this assay to test α-sheet amyloid inhibitor designs and control peptides (sequences provided in Table 2) in batch biofilm cultures. The first inhibitor used is AP90 (Alternating Peptide #90, referred to as α1 previously^25,26). […] The AP401 and AP407 designs display similar spectral features by CD, except that AP401 has a positive signal in the random coil region (FIG. 7). AP401 has the same sequence as AP90 but with reversed chirality in the strands and turn, thus the D-amino acids give rise to an approximate mirror image CD spectrum relative to AP90. AP407 is a variant of AP90 with a disulfide bond. An unstructured random coil peptide (RC) and a β-hairpin (β) are used as structural controls.\nDesigned and control peptides were added to the growth medium prior to inoculation, and biofilms were allowed to grow for 24 hours at 37° C. Planktonic cells were removed and the remaining biofilms were assayed for amyloid content using ThT. […] The disulfide-linked peptide design, AP407, reduced the amyloid fibril formation by 46% and 56% in the MN8 and SH1000 WT strains, respectively. In contrast, the random coil and β-sheet control peptides were ineffective.\nOvernight cultures of S. aureus (see Table 1 for a list of strains used in this study) were spun down and re-suspended in fresh Luria-Bertani (LB) media to an optical density of 0.1 (600 nm). These cultures were then mixed with reconstituted peptide (or water, in the case of controls) and aliquoted in quadruplicate into wells of a clear 48-well plate (Corning, TC-treated polystyrene). The final concentration of peptide in each well was 80 μM, unless otherwise noted. Plates were covered and biofilms were grown at 37° C. for 24 hours with gentle rocking. At this time, medium and planktonic cells were removed from wells using a vacuum and the remaining adherent biofilms were rinsed once with PBS (BupH™, Thermo Scientific). Thioflavin T (ThT), an established fluorescent label for amyloid fibrils^40, was then added to each well at a concentration of 22 μM and biofilms were incubated statically for 4 hours at room temperature. The solution was then removed from the wells and PBS was added with vigorous pipetting to detach biofilms from the plate surface. Plates were shaken at high speed for 1 minute on a plate shaker to detach any remaining biofilm material and homogenize the samples. The detached biofilm suspensions were transferred to a 96-well black-walled plate (Corning, TC-treated polystyrene) and ThT fluorescence was read at 438/495 nm on a Perkin-Elmer Enspire™ plate reader. Fluorescence measurements were corrected by subtracting the background intensity of identical samples without ThT. For calculation of live:dead cell ratios, biofilm suspensions were prepared as described above and cells were stained with a 1:1 mixture of Syto9 and propidium iodide (LIVE/DEAD BacLight™ Bacterial Viability Kit, Thermo Scientific). After 15 minutes of incubation at room temperature, fluorescence ratios of the two dyes were determined using a Perkin-Elmer Enspire™ plate reader."}, "[3]": {"system": "P. aeruginosa PAO1 pFap biofilms", "assay": "In situ ThT assay of Fap amyloid in P. aeruginosa biofilms", "type": "cell-based", "conditions": "LB medium, 37° C., 48 h", "source_text": "FIG. 15. Action of synthetic α-sheet peptides in the P. aeruginosa system. […] Error bars indicate standard deviation of the mean of at least three replicates. Significance values are p<0.05: *, p<0.01: **, p<0.001: ***.\nThe strain used in these experiments is a fap-overexpressing mutant of P. aeruginosa PAO1 WT called PAO1 pFap. The overexpression is generated by cloning the entire fap operon into a host expression vector, which is then transformed into PAO1 WT. […] For in situ assays, overnight cultures from a single colony of freshly transformed PAO1 pFap were used to inoculate 96 well plates in the presence of synthetic α-sheet peptides in LB medium. As a control, biofilms of the deletion strain PAO1 Δfap were grown under the same conditions. Plates were covered and incubated at 37° C. for 48 h. After incubation, planktonic cells and media were gently removed from the biofilms by pipetting. The biofilms were rinsed once with PBS prior to staining with 20 μM ThT. Stained biofilms were resuspended by pipetting and sonication, and the fluorescence of ThT was measured at 448/485 nm in a plate reader."}, "[4]": {"system": "SA", "assay": "Crystal violet biofilm assay", "type": "cell-based, Staphylococcus aureus", "source_text": "(§1) Furthermore, these same inhibitors are active against EC, SE, and SM."}, "[5]": {"system": "Streptococcus mutans (SM)", "assay": "Crystal violet biofilm assay", "type": "cell-based", "source_text": "as §1"}, "[6]": {"system": "Escherichia coli (EC)", "assay": "Crystal violet biofilm assay", "type": "cell-based", "source_text": "as §1"}, "[7]": {"system": "Staphylococcus epidermidis (SE)", "assay": "Crystal violet biofilm assay", "type": "cell-based", "source_text": "as §1"}, "[8]": {"system": "Pseudomonas aeruginosa (PA)", "assay": "Crystal violet biofilm assay", "type": "cell-based", "source_text": "as §1"}}, "note": "Non-standard residues stand in square brackets, D forms with d. No end group written: not given here."}
{"substance": "KLKpLLTSENTL (KLK[dP]LLTSENTL) [RC, unstructured random coil peptide used as structural control]", "values": [{"measurement": "Inhibition of PSMα1 fibril formation", "setting": "[1]; 30 μM PSMα1, LB medium + <1% DMSO, 1:4 molar ratio", "value": "did not significantly influence amyloid formation"}, {"measurement": "Inhibition of PSMα1 amyloid formation", "setting": "[1]; 30 μM PSMα1, water + <1% DMSO, 1:4 molar ratio (excess peptide)", "value": "little effect"}, {"measurement": "Effect on amyloid fibril formation in S. aureus biofilms (ThT fluorescence, FIG. 1B)", "setting": "[2]", "value": "ineffective"}]}
{"substance": "RGNwNeSkMNEYSGWmLmLtMGR (RGN[dW]N[dE]S[dK]MNEYSGW[dM]L[dM]L[dT]MGR) [AP5]", "values": [{"measurement": "Amyloid formation in biofilms (ThT)", "setting": "[3]", "value": "significantly inhibit amyloid formation"}, {"measurement": "Biofilm inhibition (crystal violet, FIG. 10)", "setting": "[4]", "value": "inhibition"}, {"measurement": "Activity against biofilm-forming bacteria (crystal violet)", "setting": "[5]", "value": "active"}, {"measurement": "Activity against biofilm-forming bacteria (crystal violet)", "setting": "[6]", "value": "active"}, {"measurement": "Activity against biofilm-forming bacteria (crystal violet)", "setting": "[7]", "value": "active"}, {"measurement": "Biofilm inhibition (crystal violet, FIG. 10)", "setting": "[8]", "value": "inhibition"}]}
{"substance": "SWTWEpNKWTWK (H-SWTWE[dP]NKWTWK-NH2; SMILES C[C@@H](O)[C@H](NC(=O)[C@H](Cc1c[nH]c2ccccc12)NC(=O)[C@H](CCCCN)NC(=O)[C@H](CC(N)=O)NC(=O)[C@H]1CCCN1C(=O)[C@H](CCC(=O)O)NC(=O)[C@H](Cc1c[nH]c2ccccc12)NC(=O)[C@@H](NC(=O)[C@H](Cc1c[nH]c2ccccc12)NC(=O)[C@@H](N)CO)[C@@H](C)O)C(=O)N[C@@H](Cc1c[nH]c2ccccc12)C(=O)N[C@@H](CCCCN)C(N)=O) [β, β-hairpin structural control peptide, reference compound]", "values": [{"measurement": "Effect on amyloid fibril formation in S. aureus biofilms (ThT fluorescence, FIG. 1B)", "setting": "[2]", "value": "ineffective"}]}
{"substance": "rGeMnLsWmneysGwTmNlKmGr (Ac-[dR]G[dE]M[dN]L[dS]W[dM][dN][dE][dY][dS]G[dW]T[dM]N[dL]K[dM]G[dR]-NH2; SMILES CSCC[C@H](NC(=O)[C@@H](CCC(=O)O)NC(=O)CNC(=O)[C@@H](CCCNC(=N)N)NC(C)=O)C(=O)N[C@H](CC(N)=O)C(=O)N[C@@H](CC(C)C)C(=O)N[C@H](CO)C(=O)N[C@@H](Cc1c[nH]c2ccccc12)C(=O)N[C@H](CCSC)C(=O)N[C@H](CC(N)=O)C(=O)N[C@H](CCC(=O)O)C(=O)N[C@H](Cc1ccc(O)cc1)C(=O)N[C@H](CO)C(=O)NCC(=O)N[C@H](Cc1c[nH]c2ccccc12)C(=O)N[C@H](C(=O)N[C@H](CCSC)C(=O)N[C@@H](CC(N)=O)C(=O)N[C@H](CC(C)C)C(=O)N[C@@H](CCCCN)C(=O)N[C@H](CCSC)C(=O)NCC(=O)N[C@H](CCCNC(=N)N)C(N)=O)[C@@H](C)O) [AP401]", "values": [{"measurement": "Effect on amyloid fibril formation in S. aureus biofilms (ThT fluorescence, FIG. 1B)", "setting": "[2]", "value": "significant reduction in amyloid fibril formation"}]}
